Measurements published in US9400274B2, “Cancer phospholipidome” (Katholieke Universiteit Leuven, priority 2010, dated 2016).
“Also recorded” adds a separate entry of the source.

How the values were obtained:
[1] = test system: human renal cell carcinoma cell line RCC4; assay: Phospholipid profiling (tandem MS) of soraphen-treated RCC4 cells; format: cell-based; conditions: 100 nm soraphen vs vehicle, 72 h, PC, PE, PI, PS classes
Description: Renal cancer cell lines RCC4 VHL (Von Hippel Lindau) positive and negative were cultured in advanced DMEM supplemented with 10% fetal bovine serum, 1% PSG and 0.5 mg/ml G418. Cells were grown at 37° C. in a humidified 5% CO2 incubator. The day after seeding, cells were treated with 100 nm soraphen or vehicle (control) for 72 h.
To assess the impact of fatty acyl chain elongation and of chemical inhibitors of this process, the human renal cell carcinoma cell line RCC4 was treated with soraphen.

[2] = test system: Human breast adenocarcinoma cells MDA-MB-231; assay: Phospholipid profiling (tandem MS) of soraphen-treated MDA-MB-231 cells; format: cell-based; conditions: 100 nm soraphen vs vehicle, 72 h, four phospholipid classes
Description: Human breast adenocarcinoma cells MDA-MB-231 (obtained from the American Type Culture Collection) were cultured in DMEM-F12 supplemented with 10% fetal bovine serum and were grown at 37° C. in a humidified 5% CO2 incubator. The day after seeding, cells were treated with 100 nm soraphen or vehicle (control) for 72 h.
Lipids were extracted from both soraphen and vehicle treated cells and were analyzed by tandem mass spectrometry.

In the case of `CO[C@H]1CCCC[C@@H](c2ccccc2)OC(=O)[C@@H](C)[C@@]2(O)O[C@H]([C@@H](C)[C@H](O)[C@H]2OC)[C@@H](C)/C=C/[C@H]1OC` [soraphen], the “changes in phospholipid acyl chain composition (soraphen/control ratio)” value [1] is reported as “a marked shift from longer to shorter lipid species; also recorded: a marked inhibition of acyl chain elongation” and the “changes in phospholipid acyl chain composition (soraphen/control ratio)” value [2] is reported as “a marked shift from longer to shorter lipid species; also recorded: a clear decrease in the longer lipid species”.
